The numbers were not newly measured in patent US20140356423A1, “FORMULATIONS OF LYCOPENE IN COMBINATION WITH BISPHOSPHONATES BONE RESORPTION INHIBITORS” (priority 2013, published 2014), which cites them from elsewhere.

Where two headings read alike, the source gives them in different places. Bounds are passed on as bounds.

The conditions of data set [1]: tablet not taken with enough water, or patient not upright for approximately one-half hour after taking.
The conditions of data set [2]: taken either concurrently with or 2 hours after breakfast.
The test system of data set [3] is alkaline phosphatase activity.
Data set [4] relates to osteoblast-like SaOS-2 cells.

In the case of `NCCCC(O)(P(=O)(O)O)P(=O)(O)O` [alendronate, 4-amino-1-hydroxybutylidene-1,1-biphosphonic acid], the side effects result in data set [1] was “esophageal irritation and erosion”. Moreover, the impairment of availability in data set [2] is listed as more than 85%.
For `CC(C)=CCC/C(C)=C/C=C/C(C)=C/C=C/C(C)=C/C=C/C=C(C)/C=C/C=C(C)/C=C/C=C(\C)CCC=C(C)C` [lycopene], the alkaline phosphatase activity entry in data set [3] (more mature cells grown in the presence of dexamethasone (SaOS+Dex cells)) is given as “stimulate alkaline phosphatase activity”; in data set [3] (younger cells grown in the absence of dexamethasone (SaOS-Dex cells), depending on the time of addition) it was “inhibited or had no effect”. Moreover, the “proliferation of osteoblast-like SaOS-2 cells” value in data set [4] is “stimulated the proliferation”.
